Data on 14 molecules can be found in ChEMBL document CHEMBL1909046, “DrugMatrix in vitro pharmacology data”.

A short description of data set [1]: DRUGMATRIX: Nicotinic Acetylcholine radioligand binding (ligand: [125I] Epibatidine). Type of data set: cell membranes, Membrane. To be noted: imr-32; Not Active = under 50% inhibition at 10 µM.
Data set [2] can be described thus: DRUGMATRIX: Atrial Natriuretic Factor (ANF) radioligand binding (ligand: [125I] ANF (rat)). The data set is classed as cell membranes, Cavia porcellus, Dunkin-Hartley, Adrenal gland, Membrane. To be noted: Not Active = under 50% inhibition at 10 µM.
A further data set has as its target T1, Cytochrome P450 2A6 (Homo sapiens, UniProt P11509). Note: in other assays of this panel Not Active means under 50% inhibition at 10 µM.
T1 sequence (P11509 whole entry): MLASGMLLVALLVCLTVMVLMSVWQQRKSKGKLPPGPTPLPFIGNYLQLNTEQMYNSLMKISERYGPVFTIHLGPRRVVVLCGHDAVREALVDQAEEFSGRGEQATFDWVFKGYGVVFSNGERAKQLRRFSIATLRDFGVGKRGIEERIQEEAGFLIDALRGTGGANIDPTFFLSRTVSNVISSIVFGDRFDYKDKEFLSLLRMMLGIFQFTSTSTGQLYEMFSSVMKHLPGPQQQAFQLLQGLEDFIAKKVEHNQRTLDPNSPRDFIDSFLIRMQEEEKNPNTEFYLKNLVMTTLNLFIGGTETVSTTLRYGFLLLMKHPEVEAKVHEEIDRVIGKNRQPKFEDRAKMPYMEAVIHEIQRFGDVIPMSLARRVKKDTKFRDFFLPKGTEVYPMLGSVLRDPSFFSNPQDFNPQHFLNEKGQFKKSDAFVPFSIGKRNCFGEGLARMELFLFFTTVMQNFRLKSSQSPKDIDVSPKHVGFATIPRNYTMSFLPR
To be noted: bti-tn-5b1-4.

Data set [3] addresses T2, Amine oxidase [flavin-containing] A (Homo sapiens, UniProt P21397).
T2 sequence (P21397 whole entry): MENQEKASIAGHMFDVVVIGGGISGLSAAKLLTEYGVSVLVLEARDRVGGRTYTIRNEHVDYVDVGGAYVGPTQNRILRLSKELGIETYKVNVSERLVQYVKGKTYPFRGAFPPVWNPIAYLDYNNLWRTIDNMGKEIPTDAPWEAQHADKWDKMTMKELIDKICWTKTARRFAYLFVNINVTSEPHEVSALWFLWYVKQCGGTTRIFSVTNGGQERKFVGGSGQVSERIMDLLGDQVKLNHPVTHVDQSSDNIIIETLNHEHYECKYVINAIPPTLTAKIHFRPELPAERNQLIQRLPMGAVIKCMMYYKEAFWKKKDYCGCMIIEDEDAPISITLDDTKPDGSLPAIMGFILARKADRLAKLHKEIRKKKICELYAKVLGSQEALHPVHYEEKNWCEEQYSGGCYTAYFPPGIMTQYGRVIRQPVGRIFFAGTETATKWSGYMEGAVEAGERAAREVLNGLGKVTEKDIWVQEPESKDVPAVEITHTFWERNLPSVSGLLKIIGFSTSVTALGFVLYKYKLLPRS
Nature of the data set: DRUGMATRIX: Monoamine Oxidase MAO-A enzyme inhibition (substrate: Kynuramine). More on the design: species or system BTI-TN-5B1-4. The following applies: Not Active = under 50% inhibition at 10 µM.

Data set [4] concerns the target Vascular endothelial growth factor receptor 1 (Homo sapiens, UniProt P17948). Type of data set: cell-based. To be noted: huvec. Note: in other assays of this panel Not Active means under 50% inhibition at 10 µM.
The target of another data set is T3, Leukotriene C4 synthase (Cavia porcellus, UniProt A6XA80).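 Note: enzyme inhibition assay of leukotriene C4 synthase, using LTA4 as the substrate; in other assays of this panel Not Active means under 50% inhibition at 10 µM.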
T3 sequence (A6XA80 whole entry): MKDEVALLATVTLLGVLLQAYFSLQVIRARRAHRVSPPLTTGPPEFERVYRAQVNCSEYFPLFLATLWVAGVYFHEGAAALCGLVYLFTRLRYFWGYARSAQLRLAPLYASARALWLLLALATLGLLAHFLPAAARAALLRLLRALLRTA
The data set is classed as tissue-based, Lung.

A short description of data set [5]: DRUGMATRIX: GABAA, Muscimol, Central radioligand binding (ligand: [3H] Muscimol). The data set is classed as cell membranes, Rattus norvegicus, Wistar, Brain, Membrane. The following applies: Not Active = under 50% inhibition at 10 µM.
Data set [6] concerns the target T4, Vasoactive intestinal polypeptide receptor 1 (Homo sapiens, UniProt P32241). Note: in other assays of this panel Not Active means under 50% inhibition at 10 µM.
T4 sequence (P32241 whole entry): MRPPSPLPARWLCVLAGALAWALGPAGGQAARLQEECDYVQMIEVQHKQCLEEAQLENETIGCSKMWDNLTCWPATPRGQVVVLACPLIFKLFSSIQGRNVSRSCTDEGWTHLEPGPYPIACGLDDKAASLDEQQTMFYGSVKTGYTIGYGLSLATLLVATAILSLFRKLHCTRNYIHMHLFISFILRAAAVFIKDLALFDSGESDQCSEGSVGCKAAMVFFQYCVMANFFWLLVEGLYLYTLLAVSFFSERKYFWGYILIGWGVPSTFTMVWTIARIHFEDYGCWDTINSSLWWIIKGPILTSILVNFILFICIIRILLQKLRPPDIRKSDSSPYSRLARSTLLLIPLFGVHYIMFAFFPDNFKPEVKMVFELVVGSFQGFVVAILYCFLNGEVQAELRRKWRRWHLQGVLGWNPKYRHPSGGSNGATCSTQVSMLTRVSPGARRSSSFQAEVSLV
The data set is classed as cell membranes, Membrane. To be noted: ht-29.

Data set [7] addresses Mitogen-activated protein kinase 1 (Homo sapiens, UniProt P28482). Briefly: DRUGMATRIX: Protein Serine/Threonine Kinase, ERK2 enzyme inhibition (substrate: Myelin Basic Protein). Details: species or system Escherichia coli. The following applies: Not Active = under 50% inhibition at 10 µM.

The structures appear in SMILES notation.

Sequence of Vascular endothelial growth factor receptor 1 (P17948 whole entry): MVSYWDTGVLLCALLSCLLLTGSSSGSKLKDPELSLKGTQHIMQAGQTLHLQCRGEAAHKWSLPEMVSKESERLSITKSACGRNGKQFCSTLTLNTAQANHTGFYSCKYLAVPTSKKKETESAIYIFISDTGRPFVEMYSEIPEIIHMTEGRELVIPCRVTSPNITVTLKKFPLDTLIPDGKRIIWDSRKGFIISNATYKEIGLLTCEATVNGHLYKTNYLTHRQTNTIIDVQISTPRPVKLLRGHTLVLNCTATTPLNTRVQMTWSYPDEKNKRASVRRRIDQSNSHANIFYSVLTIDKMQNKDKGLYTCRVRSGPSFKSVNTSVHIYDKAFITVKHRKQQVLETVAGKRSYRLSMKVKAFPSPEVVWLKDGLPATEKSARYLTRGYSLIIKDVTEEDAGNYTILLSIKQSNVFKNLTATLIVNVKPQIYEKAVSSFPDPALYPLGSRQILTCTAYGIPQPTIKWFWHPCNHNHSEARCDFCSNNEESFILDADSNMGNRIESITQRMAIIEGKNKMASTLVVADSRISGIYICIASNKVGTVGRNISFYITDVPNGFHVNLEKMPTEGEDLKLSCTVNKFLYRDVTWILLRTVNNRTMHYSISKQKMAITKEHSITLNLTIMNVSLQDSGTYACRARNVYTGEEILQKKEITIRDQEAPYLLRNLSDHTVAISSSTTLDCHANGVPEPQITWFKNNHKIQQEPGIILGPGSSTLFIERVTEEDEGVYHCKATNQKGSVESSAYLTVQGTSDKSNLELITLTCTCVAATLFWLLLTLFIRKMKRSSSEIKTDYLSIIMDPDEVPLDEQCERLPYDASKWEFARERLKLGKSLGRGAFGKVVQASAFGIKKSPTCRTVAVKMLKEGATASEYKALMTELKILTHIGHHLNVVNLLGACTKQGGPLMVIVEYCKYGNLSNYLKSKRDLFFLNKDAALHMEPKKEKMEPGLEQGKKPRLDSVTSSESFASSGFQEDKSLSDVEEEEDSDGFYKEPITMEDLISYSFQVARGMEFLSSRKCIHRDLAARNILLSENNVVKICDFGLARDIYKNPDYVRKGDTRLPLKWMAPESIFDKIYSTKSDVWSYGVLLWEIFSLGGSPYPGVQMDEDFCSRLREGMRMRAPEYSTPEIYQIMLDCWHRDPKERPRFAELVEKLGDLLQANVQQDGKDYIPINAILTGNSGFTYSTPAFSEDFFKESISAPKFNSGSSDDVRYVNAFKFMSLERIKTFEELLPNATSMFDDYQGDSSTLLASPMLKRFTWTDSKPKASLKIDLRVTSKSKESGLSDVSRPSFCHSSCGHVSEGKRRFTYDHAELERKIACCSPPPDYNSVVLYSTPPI
Sequence of Mitogen-activated protein kinase 1 (P28482 whole entry): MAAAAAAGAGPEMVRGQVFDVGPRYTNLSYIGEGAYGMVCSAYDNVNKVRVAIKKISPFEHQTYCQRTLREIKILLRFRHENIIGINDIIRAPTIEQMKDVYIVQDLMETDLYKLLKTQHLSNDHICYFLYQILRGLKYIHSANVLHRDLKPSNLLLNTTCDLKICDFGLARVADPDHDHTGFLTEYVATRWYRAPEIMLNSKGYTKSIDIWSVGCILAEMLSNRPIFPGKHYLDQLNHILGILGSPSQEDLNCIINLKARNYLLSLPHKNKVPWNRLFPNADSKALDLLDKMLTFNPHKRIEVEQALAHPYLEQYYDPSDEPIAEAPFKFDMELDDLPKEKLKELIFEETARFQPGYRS

For orientation: IC50 means the midpoint of a concentration-inhibition curve. On to `CC(C)(C)NC(=O)[C@@H]1C[C@@H]2CCCC[C@@H]2CN1C[C@@H](O)[C@H](Cc1ccccc1)NC(=O)[C@H](CC(N)=O)NC(=O)c1ccc2ccccc2n1`, for which the IC50 entry (in data set [1]; in data set [2]; at Cytochrome P450 2A6; in data set [3] (bti-tn-5b1-4); in [4]; against Leukotriene C4 synthase) was “Not Active” each time. The IC50 result in data set [5], in data set [6] and in [7] was “Not Active” throughout. For the same molecule, the Ki result (in data set [1]; in data set [2]; at Cytochrome P450 2A6; in [5]) was “Not Active” throughout.
Consider `CC(=O)[C@@]1(O)CC[C@H]2[C@@H]3C[C@H](C)C4=CC(=O)CC[C@]4(C)[C@H]3CC[C@@]21C`, for which the IC50 entry (in [1]; in data set [2]; at Cytochrome P450 2A6; in [3] (bti-tn-5b1-4); in data set [4]; at Leukotriene C4 synthase) was “Not Active” in each case. Further, the IC50 result in [5], in [6] and in data set [7] was “Not Active” in each case. The Ki result (in data set [1]; in data set [2]; on Cytochrome P450 2A6; in data set [5]) was “Not Active” in each case.
As to `N[C@@H](Cc1ccc(N(CCCl)CCCl)cc1)C(=O)O`, the IC50 entry (in data set [1]; in [2]; on Cytochrome P450 2A6; in data set [3] (bti-tn-5b1-4); in [4]; on Leukotriene C4 synthase) was “Not Active” throughout. For the same molecule, the IC50 result in data set [5], in data set [6] and in data set [7] was “Not Active” in each case. The Ki result (in [1]; in data set [2]; at Cytochrome P450 2A6; in [5]) was “Not Active” in each case.
`CCCCc1oc2ccccc2c1C(=O)c1cc(I)c(OCCN(CC)CC)c(I)c1` [AMIODARONE]: the IC50 entry (against Cytochrome P450 2A6; in data set [3] (bti-tn-5b1-4); in [4]; on Leukotriene C4 synthase; in [6]; in data set [7]) was “Not Active” throughout. The Ki result at Cytochrome P450 2A6 is recorded as “Not Active”.
`OCCN(CCO)c1nc(N2CCCCC2)c2nc(N(CCO)CCO)nc(N3CCCCC3)c2n1` [DIPYRIDAMOLE]: the IC50 entry (in data set [1]; in data set [2]; on Cytochrome P450 2A6; in data set [3] (bti-tn-5b1-4); in data set [4]; against Leukotriene C4 synthase) was “Not Active” in each case. For the same molecule, the IC50 entry in data set [5], in data set [6] and in [7] was “Not Active” in each case. Also, the Ki result (in data set [1]; in data set [2]; at Cytochrome P450 2A6; in data set [5]) was “Not Active” each time.
As to `Cc1oncc1C(=O)Nc1ccc(C(F)(F)F)cc1` [LEFLUNOMIDE], the half-maximal inhibitory concentration (IC50) result in data set [1] is “Not Active”; in [2], “Not Active”; on Cytochrome P450 2A6, “Not Active”; in [3] (read-out: IC50) it was 20.7 µM; in [4], “Not Active”; against Leukotriene C4 synthase it was “Not Active”. In addition, the IC50 result in data set [5], in data set [6] and in [7] was “Not Active” each time. For the same molecule, the Ki result (in data set [1]; in data set [2]; on Cytochrome P450 2A6; in data set [5]) was “Not Active” each time.
For the molecule `c1ccc([C@H]2CN3CCSC3=N2)cc1` [LEVAMISOLE], the IC50 entry (in data set [1]; in [2]; against Cytochrome P450 2A6; in data set [3] (bti-tn-5b1-4); in data set [4]; against Leukotriene C4 synthase) was “Not Active” throughout. The IC50 entry in [5], in data set [6] and in [7] was “Not Active” throughout. Further, the Ki entry (in [1]; in data set [2]; on Cytochrome P450 2A6; in [5]) was “Not Active” each time.
`N[C@@H](Cc1ccc(O)c(O)c1)C(=O)O` [LEVODOPA]: the IC50 result (in [1]; in data set [2]; against Cytochrome P450 2A6; in [3] (bti-tn-5b1-4); in data set [4]; on Leukotriene C4 synthase) was “Not Active” throughout. In addition, the IC50 entry in data set [5], in data set [6] and in data set [7] was “Not Active” each time. Besides, the Ki entry (in data set [1]; in data set [2]; at Cytochrome P450 2A6; in [5]) was “Not Active” each time.
As to `N[C@@H](Cc1cc(I)c(Oc2ccc(O)c(I)c2)c(I)c1)C(=O)O` [LIOTHYRONINE], the IC50 entry (against Cytochrome P450 2A6; in data set [3] (bti-tn-5b1-4); in data set [4]; on Leukotriene C4 synthase; in data set [6]; in data set [7]) was “Not Active” each time. Moreover, on Cytochrome P450 2A6, the Ki entry is reported as “Not Active”.
`CN1CCN(CCCN2c3ccccc3Sc3ccc(Cl)cc32)CC1` [PROCHLORPERAZINE]: the IC50 entry (on Cytochrome P450 2A6; in [3] (bti-tn-5b1-4); in data set [4]; against Leukotriene C4 synthase; in [6]; in data set [7]) was “Not Active” in each case. At Cytochrome P450 2A6, the Ki result is reported as “Not Active”.
Turning to `Nc1nc2ccc(OC(F)(F)F)cc2s1` [RILUZOLE], the IC50 entry (in data set [1]; in [2]; in data set [3] (bti-tn-5b1-4); in data set [4]; at Leukotriene C4 synthase; in data set [5]) was “Not Active” each time. For the same molecule, the IC50 entry in data set [6] and in data set [7] was “Not Active” each time. The Ki result in data set [1], in data set [2] and in data set [5] was “Not Active” each time.
Regarding `Cc1nc2n(c(=O)c1CCN1CCC(c3noc4cc(F)ccc34)CC1)CCCC2` [RISPERIDONE], the IC50 result (at Cytochrome P450 2A6; in data set [3] (bti-tn-5b1-4); in data set [4]; against Leukotriene C4 synthase; in data set [6]; in data set [7]) was “Not Active” throughout. At Cytochrome P450 2A6, the Ki result was “Not Active”.
Regarding `CC/C(=C(\c1ccccc1)c1ccc(OCCN(C)C)cc1)c1ccccc1` [TAMOXIFEN], the IC50 result (at Cytochrome P450 2A6; in data set [3] (bti-tn-5b1-4); in data set [4]; on Leukotriene C4 synthase; in [6]; in data set [7]) was “Not Active” throughout. Further, the Ki result at Cytochrome P450 2A6 is “Not Active”.
In the case of `CC(C)N1CCN(c2ccc(OCC3COC(Cn4cncn4)(c4ccc(Cl)cc4Cl)O3)cc2)CC1` (stereo unspecified) [TERCONAZOLE], the IC50 entry (at Cytochrome P450 2A6; in data set [3] (bti-tn-5b1-4); in [4]; against Leukotriene C4 synthase; in [5]; in data set [6]) was “Not Active” each time. For the same molecule, the IC50 result in data set [7] was “Not Active”. For the same molecule, the Ki result (at Cytochrome P450 2A6; in data set [5]) was “Not Active” each time.
